assay: Inhibition of PDGF-induced proliferation in RAOSMC; parameters: species or system Rattus norvegicus

SMILES	IC50	pIC50
O=C1C(Cl)=C(Nc2ccccc2)C(=O)c2[nH]cnc21	5.5 µM	5.26
O=C1C(Cl)=C(Nc2cccc(Br)c2)C(=O)c2[nH]cnc21	1.6 µM	–
O=C1C(Br)=C(Nc2ccc(F)cc2)C(=O)c2[nH]cnc21	1 µM	6
O=C1C(Br)=C(Nc2cccc(I)c2)C(=O)c2[nH]cnc21	2.5 µM	–
Cc1nc2c([nH]1)C(=O)/C(=N/c1ccc(F)c(F)c1F)C(Cl)=C2O	0.8 µM	–
Cc1nc2c([nH]1)C(=O)/C(=N/c1ccccc1)C(Cl)=C2O	0.8 µM	–
Cc1ccc(NC2=C(Br)C(=O)c3nc[nH]c3C2=O)cc1	1 µM	–
Cc1nc2c([nH]1)C(=O)/C(=N/c1cccc(Br)c1)C(Cl)=C2O	1 µM	–
Cc1nc2c([nH]1)C(=O)/C(=N/c1ccc(F)cc1)C(Cl)=C2O	3 µM	–
O=C1C(Cl)=C(Nc2ccccc2)C(=O)c2[nH]c(C(F)(F)F)nc21	50 µM	–
Cc1nc2c([nH]1)C(=O)/C(=N/c1cccc(Cl)c1)C(Cl)=C2O	0.9 µM	–
O=C1C(Cl)=C(Nc2cccc(Cl)c2)C(=O)c2[nH]cnc21	1.4 µM	–
O=C1C(Cl)=C(Nc2cccc(I)c2)C(=O)c2[nH]cnc21	1.3 µM	–
O=C1C(Br)=C(Nc2ccc(Cl)cc2)C(=O)c2[nH]cnc21	4 µM	–
O=C1C(Br)=C(Nc2ccccc2)C(=O)c2[nH]cnc21	1.1 µM	–
O=C1C(Cl)=C(Nc2ccc(I)cc2)C(=O)c2[nH]c(C(F)(F)F)nc21	25 µM	–
O=C1C(Cl)=C(Nc2ccc(Cl)cc2)C(=O)c2[nH]c(C(F)(F)F)nc21	15 µM	4.82
Cc1ccc(NC2=C(Cl)C(=O)c3nc(C(F)(F)F)[nH]c3C2=O)cc1	40 µM	–
O=C1C(Cl)=C(Nc2ccc(I)cc2)C(=O)c2[nH]cnc21	1.3 µM	5.89
O=C1C(Cl)=C(Nc2ccc(F)cc2)C(=O)c2[nH]c(C(F)(F)F)nc21	12 µM	–
Cc1nc2c([nH]1)C(=O)/C(=N/c1ccc(I)cc1)C(Cl)=C2O	1 µM	–

SMILES	IC50	pIC50
O=C1C(Cl)=C(Nc2ccc(F)cc2)C(=O)c2[nH]cnc21	1.2 µM	–
O=C1C(Cl)=C(Nc2ccc(OC(F)(F)F)cc2)C(=O)c2[nH]c(-c3ccccn3)nc21	6 µM	–
O=C1C(Cl)=C(Nc2ccc(F)cc2)C(=O)c2[nH]c(-c3ccncc3)nc21	50 µM	–
O=C1C=C(Nc2ccc(Br)cc2)C(=O)c2[nH]c(-c3ccccn3)nc21	12 µM	–
O=C1C=C(Nc2ccc(Cl)cc2)C(=O)c2[nH]c(-c3ccccn3)nc21	13 µM	–
O=C1C=C(Nc2ccc(I)cc2)C(=O)c2[nH]c(-c3ccccn3)nc21	20 µM	–
Cc1nc2c([nH]1)C(=O)/C(=N/c1ccc(F)cc1F)C(Cl)=C2O	1.2 µM	–
Cc1ccc(NC2=C(Cl)C(=O)c3nc[nH]c3C2=O)cc1	1.4 µM	–
O=C1C(Cl)=C(Nc2ccc(C(F)(F)F)cc2)C(=O)c2[nH]cnc21	2.5 µM	5.6
O=C1C(Cl)=C(Nc2ccc(C(F)(F)F)cc2)C(=O)c2[nH]c(C(F)(F)F)nc21	20 µM	–
Cc1ccc(NC2=C(Cl)C(=O)c3nc(C)[nH]c3C2=O)cc1	0.8 µM	–
Cc1nc2c([nH]1)C(=O)/C(=N/c1ccc(Cl)cc1)C(Cl)=C2O	2.8 µM	5.55
COc1ccc(NC2=C(Cl)C(=O)c3nc(-c4ccncc4)[nH]c3C2=O)cc1	50 µM	4.3
O=C1C(Cl)=C(Nc2ccc(F)cc2)C(=O)c2[nH]c(-c3cccnc3)nc21	21 µM	–
O=C1C(Cl)=C(Nc2ccc(F)c(F)c2)C(=O)c2[nH]cnc21	1.1 µM	–
Cc1nc2c([nH]1)C(=O)/C(=N/c1ccc(Cl)cc1Cl)C(Cl)=C2O	0.8 µM	–
O=C1C(Br)=C(Nc2ccc(C(F)(F)F)cc2)C(=O)c2[nH]cnc21	3.1 µM	–
Cc1nc2c([nH]1)C(=O)/C(=N/c1cccc(Cl)c1Cl)C(Cl)=C2O	0.6 µM	–
Cc1nc2c([nH]1)C(=O)/C(=N/c1ccc(C(F)(F)F)cc1)C(Cl)=C2O	0.6 µM	–
Cc1cccc(NC2=C(Cl)C(=O)c3nc(-c4ccncc4)[nH]c3C2=O)c1	60 µM	–
O=C1C=C(Nc2ccc(OC(F)(F)F)cc2)C(=O)c2[nH]c(-c3ccccn3)nc21	20 µM	–

SMILES	IC50	pIC50
O=C1C(Cl)=C(Nc2cccc(Cl)c2)C(=O)c2[nH]c(-c3ccccn3)nc21	3.5 µM	–
Cc1ccc(NC2=C(Cl)C(=O)c3nc(-c4cccnc4)[nH]c3C2=O)cc1	45 µM	4.35
O=C1C(Cl)=C(Nc2cccc(F)c2)C(=O)c2[nH]c(-c3ccncc3)nc21	19 µM	–
O=C1C(Cl)=C(Nc2cccc(Br)c2)C(=O)c2[nH]c(-c3ccncc3)nc21	20 µM	4.7
CCOc1ccc(NC2=C(Cl)C(=O)c3nc(-c4cccnc4)[nH]c3C2=O)cc1	42 µM	–
O=C1C(Cl)=C(Nc2ccc(OC(F)(F)F)cc2)C(=O)c2nc(-c3ccccn3)c(-c3ccccn3)nc21	1 µM	–
O=C1C(Cl)=C(Nc2ccc(F)cc2F)C(=O)c2[nH]cnc21	2.7 µM	–
Cc1nc2c(nc1C)C(=O)C(Nc1ccc(F)cc1)=CC2=O	3.1 µM	5.51
Cc1nc2c(nc1C)C(=O)C(Nc1ccc(Cl)cc1)=CC2=O	3.3 µM	–
Cc1nc2c(nc1C)C(=O)C(Nc1ccc(Br)cc1)=CC2=O	1.1 µM	–
O=C1C(Cl)=C(Nc2ccc(Br)cc2)C(=O)c2[nH]cnc21	2 µM	–
O=C1C(Cl)=C(Nc2ccc(Cl)cc2)C(=O)c2nc(-c3ccccn3)c(-c3ccccn3)nc21	1.5 µM	5.82
O=C1C(Cl)=C(Nc2ccc(O)cc2)C(=O)c2nc(-c3ccccn3)c(-c3ccccn3)nc21	5.5 µM	5.26
Cc1nc2c([nH]1)C(=O)C(Nc1ccc(OC(F)(F)F)cc1)=C(Cl)C2=O	3 µM	–
O=C1C(Cl)=C(Nc2cc(F)c(F)c(F)c2)C(=O)c2nc(-c3ccccn3)c(-c3ccccn3)nc21	1.2 µM	–
N#Cc1ccc(NC2=C(Cl)C(=O)c3nc[nH]c3C2=O)cc1	2.7 µM	–
Cc1nc2c(nc1C)C(=O)C(Nc1cc(F)cc(F)c1)=CC2=O	4.5 µM	–
O=C1C(Cl)=C(Nc2ccccc2)C(=O)c2nc(-c3ccccn3)c(-c3ccccn3)nc21	3.1 µM	–
Cc1nc2c(nc1C)C(=O)C(Nc1ccc(Cl)c(Cl)c1)=CC2=O	3.8 µM	–
O=C1C(Cl)=C(Nc2ccc(F)cc2)C(=O)c2nc(-c3ccccn3)c(-c3ccccn3)nc21	1 µM	–
O=C1C(Br)=C(Nc2cccc(Br)c2)C(=O)c2[nH]cnc21	5.3 µM	–

SMILES	IC50	pIC50
O=C1C(Cl)=C(Nc2ccc(OC(F)(F)F)cc2)C(=O)c2[nH]cnc21	2.5 µM	–
O=C1C(Cl)=C(Nc2cccc(Br)c2)C(=O)c2[nH]c(-c3ccccn3)nc21	20 µM	–
CCOc1ccc(NC2=C(Cl)C(=O)c3nc(-c4ccncc4)[nH]c3C2=O)cc1	75 µM	–
CCOc1ccc(NC2=CC(=O)c3nc(C)c(C)nc3C2=O)cc1	1.5 µM	–
O=C1C(Br)=C(Nc2cccc(C(F)(F)F)c2)C(=O)c2[nH]cnc21	3 µM	–
CCc1ccc(NC2=C(Cl)C(=O)c3nc(C)[nH]c3C2=O)cc1	3 µM	5.52
O=C1C(Cl)=C(Nc2ccccc2F)C(=O)c2[nH]cnc21	1.7 µM	5.77
O=C1C(Cl)=C(Nc2cccc(Cl)c2)C(=O)c2[nH]c(-c3ccncc3)nc21	31 µM	–
O=C1C(Cl)=C(Nc2ccc(Cl)c(Cl)c2)C(=O)c2[nH]c(-c3ccncc3)nc21	13 µM	–
O=C1C(Cl)=C(Nc2ccc(Cl)c(Cl)c2)C(=O)c2nc(-c3ccccn3)c(-c3ccccn3)nc21	1 µM	–
O=C1C(Cl)=C(Nc2ccc(Cl)c(F)c2)C(=O)c2[nH]c(-c3ccncc3)nc21	25 µM	4.6
COc1ccc(NC2=C(Cl)C(=O)c3nc(-c4ccccn4)c(-c4ccccn4)nc3C2=O)cc1	3.5 µM	5.46
O=C1C(Br)=C(Nc2cccc(Cl)c2)C(=O)c2[nH]cnc21	3 µM	–
O=C1C(Cl)=C(Nc2ccc(Br)cc2)C(=O)c2[nH]c(-c3ccncc3)nc21	60 µM	–
O=C1C(Cl)=C(Nc2ccc(Cl)cc2)C(=O)c2[nH]c(-c3cccnc3)nc21	20 µM	–
O=C1C(Cl)=C(Nc2ccc(Br)cc2)C(=O)c2[nH]c(-c3ccccn3)nc21	6.5 µM	–
O=C1C(Cl)=C(Nc2ccc(Cl)cc2)C(=O)c2[nH]c(-c3ccccn3)nc21	12 µM	–
CCOc1ccc(NC2=CC(=O)c3nc(-c4ccccn4)[nH]c3C2=O)cc1	6.5 µM	–

Source: ChEMBL document CHEMBL1142541, “3D-QSAR studies of heterocyclic quinones with inhibitory activity on vascular smooth muscle cell proliferation using pharmacophore-based alignment” (Bioorg Med Chem, 2008)
